From patent publication US4894453A, “2-substituted alkoxy-3-substituted-pyrazines” (Toyo Jozo Kabushiki Kaisha, priority 1986, dated 1990) come the findings set out here.

Assay [1] has as its system collagen-induced aggregation (rabbit platelet plasma). Description: Platelet aggregation inhibitory action on collagen-induced aggregation. It is filed as cell-based. The settings on record: Oryctolagus cuniculus, 0.05 h, collagen 2.5 μg/ml, 37° C., 3 min incubation, hydrochloride salt, read-out: inhibition ratio, collagen-induced platelet aggregation. The protocol: (§1) The pharmacological activity of the present compounds [1] is illustrated below. All the compounds [1] used in the pharmacological tests were tested in the form of the hydrochloride salt thereof.
(§2) 1. Platelet aggregation inhibition:
(§3) Sample solution containing a compound [1] (final concentration 500 or 100 μM) is added to rabbit platelet plasma to which was added 10% by volume of a 3.8% sodium citrate solution, and the mixture is incubated at 37° C. for 3 minutes. A platelet activation factor (PAF, final concentration 10-50 μg/ml) or collagen (final concentration 2.5 μg/ml) is added thereto as an aggregating agent, and platelet aggregation activity is measured with an aggregometer. The results of assays for PAF-induced aggregation are shown in Table 3, and those for collagen-induced aggregation are shown in Table 4, which tables show the strong platelet aggregation inhibitory activity of the compounds [1] of the present invention.

Assay [2] relates to lipoperoxide generation in rat cerebrum. Briefly: Antioxidant activity (inhibition of lipoperoxide generation, method of Stocks et al.). It is filed as biochemical. As to conditions: 100 μM; rat cerebrum supernatant, 37° C., 15 min, thiobarbituric acid, 532 nm; hydrochloride salt. The protocol: as §1
Antioxidant activity is determined according to the method of Stocks et al. [Clin. Sci. Mol. Med., 47: 215 (1974)]. Rat cerebrum is added to ice-cooled 40 mM phosphate saline buffer solution (PBS) (pH 7.4, 4 ml buffer per 1 g cerebrum), homogenized and centrifuged (1000×g, 4° C., 10 min.) to obtain a supernatant solution. The supernatant solution is diluted fivefold with the above ice-cooled PBS solution, and to a 0.9 ml aliquot thereof is added a sample containing a compound [1] (0.1 ml, final concentration 100 μM) dissolved in ethanol. The resultant mixture is incubated at 37° C. for 15 minutes, 35% perchloric acid (0.2 ml) is added, and the mixture is ice-cooled to stop the reaction and centrifuged (1300×g, 4° C., 10 min.). 0.5 ml thiobarbituric acid (5 g/lit. of 50% acetic acid) is added to the supernatant solution (1 ml), so as to measure its absorbancy at 532 nm. The amount of lipoperoxide thus generated is expressed as an amount of malondialdehyde.

Assay [3] deals with PAF-induced aggregation (rabbit platelet plasma). Briefly: Platelet aggregation inhibitory action on PAF-induced aggregation. It counts as cell-based. As to conditions: Oryctolagus cuniculus, 0.05 h, PAF 10-50 μg/ml, 37° C., 3 min incubation, hydrochloride salt, read-out: inhibition ratio, PAF-induced platelet aggregation. The protocol:
as §1, §2, §3

In assay [4] the test system is blood flow, femoral artery / left back limb. Description: Vasodilation activity, changes in blood flow in perfused left back limb of anesthetized dog. The settings on record: 100 μg into right femoral artery; relative to increased blood flow by 30 μg papaverin intra-arterially = 100%; hydrochloride salt. It is filed as in vivo. The protocol:
as §1
2. Vasodilation activity:
A dog, pretreated with morphine (1.5 mg/kg, sc) is anesthesized with urethane (450 mg/kg, iv) and α-chloralose (45 mg/kg, iv), and immobilized in the dosal position. Right femoral arterial blood is introduced into a left femoral artery via a perfusion pump, and Sterling's resistance is connected to the exosomatic circulatory system to perfuse blood to a left back limb at constant pressure. The perfusion pressure is set at a value slightly higher than that of the average blood pressure of the animal. Sample (100 μg) dissolved in physiological saline solution is administered to a right femoral artery, and changes in blood flow are measured. Vasodilation activity is measured as a relative activity, by defining as 100% the increased rate of blood flow when 30 μg papaverin is administered intra-arterially. The results are shown in Table 5, where it will be seen that the compounds [1] of the present invention have strong vasodilation activity.

Assay [5] deals with PAF-induced aggregation (rabbit platelet plasma). Description: Platelet aggregation inhibitory action on PAF-induced aggregation. It is filed as cell-based. The settings on record: Oryctolagus cuniculus, 0.05 h, PAF 10-50 μg/ml, 37° C., 3 min incubation, hydrochloride salt, read-out: inhibition ratio, PAF-induced platelet aggregation. The source holds these as a separate data set.

On to `CCCCCCCCCCc1nc2c(nc1OCCN1CCOCC1)CCCC2` [Compound 585], for which the inhibition at 100 µM in assay [1] was 41%. Besides, the “inhibition ratio, lipoperoxide generation (antioxidant activity)” value (“inhibition ratio” for short) in assay [2] worked out at 62%.

Take `CCc1nc(C)c(C)nc1OCCN1CCCN(Cc2ccc([N+](=O)[O-])cc2)CC1` [Compound 502]: in assay [3], the inhibition at 100 µM amounted to 81%. Also, the “inhibition ratio” value in assay [2] is on record as 69%.

On to `Cc1nc(C)c(OCC(=O)N2CCOCC2)nc1C` [Compound 075], for which the vasodilation activity in assay [4] came out at 89%.

Regarding `CCCCCCCCc1nc2c(nc1OCCN1CCN(CCCC)CC1)CCCC2` [Compound 573], the inhibition at 100 µM in assay [3] stood at 86%; in assay [1], 58%. Moreover, the “inhibition ratio” value in assay [2] is recorded as 56%.

As for `CCCCCCCCCCCCc1nc2c(nc1OCCN1CCN(CCCC)CC1)CCCC2` [Compound 595], the inhibition at 100 µM in assay [3] amounted to 85%. In addition, the “inhibition ratio” value in assay [2] came to 70%.

For `CCc1nc(C)c(C)nc1OC(C(=O)NCCN1CCN(Cc2ccc([N+](=O)[O-])cc2)CC1)c1ccccc1` (stereo not drawn) [Compound 344], in assay [3], the inhibition at 100 µM was 44%. The “inhibition ratio” value in assay [2] came to 48%.

`CCc1nc(CC(C)C)c(OCCN2CCN(Cc3ccccc3)CC2)nc1CC` [Compound 556]: the inhibition at 100 µM was found to be 51% in assay [3] and 40% in assay [1].

As for `CCCCCc1nc2c(nc1OCCN1CCCN(Cc3ccc(F)cc3)CC1)CCCC2` [Compound 562], the inhibition at 100 µM in assay [3] is 45%. Besides, the “inhibition ratio” value in assay [2] worked out at 65%.

`CCCCCCCCCCCCCCc1nc2c(nc1OCCN1CCN(CCCC)CC1)CCCC2` [Compound 600]: the inhibition at 100 µM in assay [3] is 52%. Moreover, the “inhibition ratio” value in assay [2] was 61%.

Turning to `Cc1nc(C)c(OCC(=O)NCCN2CCN(Cc3ccccc3)CC2)nc1C` [Compound 136], in assay [3], the inhibition at 100 µM is 50%. Also, the vasodilation activity in assay [4] stood at 204%.

With `CCc1nc(C)c(C)nc1OC(C(=O)NCCN1CCCN(Cc2ccc(F)cc2)CC1)c1ccccc1` (stereo not drawn) [Compound 347], the inhibition at 100 µM in assay [3] amounted to 59%. In addition, in assay [2], the “inhibition ratio” value came out at 51%.

Take `CCc1nc(OCCN2CCCCC2)c(C(C)C)nc1CC` [Compound 550]: the inhibition at 100 µM in assay [3] was 56%; in assay [1], 85%.

As for `Cc1nc(C)c(OCC(=O)NCCN2CCN(Cc3ccccc3Cl)CC2)nc1C` [Compound 137], in assay [3], the inhibition at 100 µM was 76%. Further, in assay [4], the vasodilation activity came to 216%.

Turning to `Cc1nc(C)c(OCC(=O)NCCN2CCN(Cc3ccc(Cl)cc3)CC2)nc1C` [Compound 135], the inhibition at 500 µM in assay [3] (500 μM) is 77%. The vasodilation activity in assay [4] is recorded as 242%.

On to `Cc1nc(OCCN2CCCN(Cc3ccc(Cl)cc3)CC2)c(C(C)C)nc1C` [Compound 547], for which the inhibition at 100 µM in assay [1] came out at 56%.

`CCCCCCCCCCc1nc2c(nc1OCCN1CCN(CCCC)CC1)CCCC2` [Compound 587]: the inhibition at 100 µM in assay [3] is 91%; in assay [1], 79%. Further, the “inhibition ratio” value in assay [2] was found to be 65%.

As for `CCc1nc(C)c(C)nc1OC(C(=O)NCCN1CCCN(Cc2ccc(Cl)cc2)CC1)c1ccccc1` (stereo not drawn) [Compound 348], in assay [3], the inhibition at 100 µM was 70%. For the same compound, the “inhibition ratio” value in assay [2] was 62%.

As to `CCCCCCCCCc1nc2c(nc1OCCN1CCN(CCCC)CC1)CCCC2` [Compound 580], the inhibition at 100 µM is 94% in assay [3] and 80% in assay [1]. Besides, the “inhibition ratio” value in assay [2] was determined as 77%.

As for `CCCCCCCCCCc1nc2c(nc1OCCN1CCN(CCO)CC1)CCCC2` [Compound 588], the inhibition at 100 µM in assay [3] was 64%; in assay [1] it was 78%. Moreover, the “inhibition ratio” value in assay [2] is listed as 65%.

With `Cc1nc(C)c(OCC(=O)N2CCCCC2)nc1C` [Compound 067], in assay [5], the inhibition at 300 µM came out at 53%.

As for `CCCCCCCCCc1nc2c(nc1OCCN1CCN(Cc3ccc(OC)cc3)CC1)CCCC2` [Compound 582], the inhibition at 100 µM in assay [1] turned out to be 58%. Further, in assay [2], the “inhibition ratio” value is 82%.

For the compound `CCCCCCc1nc2c(nc1OCCN1CCN(c3ccccc3OC)CC1)CCCC2` [Compound 570], the inhibition at 100 µM in assay [3] was determined as 40%. Also, the “inhibition ratio” value in assay [2] amounted to 65%.
